From US4342772A, “β-Lactam compounds, antibacterial compositions thereof and method of use” (priority 1979, dated 1982)
Values joined by “and” are separate entries in the source; they are usually repeats but may differ in a detail not shown here. Equal values may be shown once. Where a name gives a salt, the structure may show the parent alone. Read-outs that look alike come from different tables or passages of the source.

Key:
[1] = system: gram-positive and gram-negative organisms; conditions: cited from earlier work
[2] = system: β-lactamases; conditions: cited from earlier work
[3] = system: β-lactamase producing bacteria; conditions: cited from earlier work
[4] = human, in vivo, po
Protocol: Serum concentrations and urinary excretion of ampicillin in fasting
following oral administration of
A. 125 mg of pivampicillin free base in tablets.
B. 170 mg of VD-1827^x hydrochloride (corresponding to 125 mg of
free base) in aqueous solution.
Serum concentrations (μg/ml) (% of dose)

[5] = Absorption from the gastro-intestinal tract and in vivo hydrolysis; set-up: species or system animals and human volunteers; conditions: oral, in words
[6] = Stability of crystalline form; assay type: physicochemical; conditions: crystalline free base; in words
[7] = cited from earlier work
[8] = in words, medium not stated; cited from earlier work
[9] = Urinary excretion in 0 to 6 hours of penicillanic acid 1,1-dioxide in fasting volunteers following oral administration (Table II); conditions: oral 73 mg potassium penicillanate 1,1-dioxide, aqueous solution, individual subjects in order GK, MK, FJ, MM, LA, 360 min

| Compound | Antibacterial activity against most gram-positive and gram-negative organisms [1] | Inhibition of a wide range of β-lactamases [2] | Synergy against β-lactamase producing bacteria [3] | other results |
| --- | --- | --- | --- | --- |
| CC1(C)[C@H](C(=O)O)N2C(=O)[C@H](Cl)[C@H]2S1(=O)=O [6α-chloropenicillanic acid 1,1-dioxide] | only weak antibacterial activity | powerful inhibitors | act synergistically |  |
| CC1(C)S[C@@H]2[C@H](NC(=O)[C@H](N)c3ccccc3)C(=O)N2[C@H]1C(=O)OCOC(=O)[C@@H]1N2C(=O)C[C@H]2S(=O)(=O)C1(C)C [VD-1827 hydrochloride, 1,1-Dioxopenicillanoyloxymethyl 6-(D-α-amino-α-phenylacetamido)penicillanate hydrochloride] |  |  |  | Urinary recovery of ampicillin compared with pivampicillin [4]: comparable to that following administration of pivampicillin; Absorption from the gastro-intestinal tract ([5]; HCl, hydrochloride): efficient oral absorption |
| CC1(C)S[C@@H]2[C@H](NC(=O)[C@H](N)c3ccccc3)C(=O)N2[C@H]1C(=O)OCOC(=O)[C@@H]1N2C(=O)C[C@H]2S(=O)(=O)C1(C)C [VD-1827, free base, 1,1-Dioxopenicillanoyloxymethyl 6-(D-α-amino-α-phenylacetamido)penicillanate] |  |  |  | Absorption from the gastro-intestinal tract ([5]; listed as free base VD 1827): readily absorbable; Stability [6]: stable |
| CC1(C)S[C@@H]2C(NC(=O)[C@H](N)c3ccccc3)C(=O)N2[C@H]1C(=O)O (stereo partly drawn) [ampicillin, 6-(D-α-amino-α-phenylacetamido)penicillanic acid] |  |  |  | Absorption from the gastro-intestinal tract (general statement) ([7]; oral, in words, no data shown): incompletely absorbed |
| CC1(C)S[C@@H]2[C@H](NC(=O)C(C(=O)O)c3ccccc3)C(=O)N2[C@H]1C(=O)O (some centres unmarked) [carbenicillin] |  |  |  | Absorption from the gastro-intestinal tract (general statement) ([7]; in vivo, po): incompletely absorbed |
| COc1cccc(OC)c1C(=O)N[C@@H]1C(=O)N2[C@@H](C(=O)O)C(C)(C)S(=O)(=O)[C@H]12 [methicillin sulphone, 1,1-dioxo-6β-(2,6-dimethoxybenzamido)penicillanic acid] | only weak antibacterial activity | powerful inhibitors | act synergistically |  |
| CC1(C)[C@H](C(=O)O)N2C(=O)C[C@H]2S1(=O)=O [penicillanic acid 1,1-dioxide] | only weak antibacterial activity | powerful inhibitors | act synergistically | Absorption from the gastro-intestinal tract [5]: absorbed poorly or irregularly |
| CC(C)(C)C(=O)OCOC(=O)[C@@H]1N2C(=O)C[C@H]2S(=O)(=O)C1(C)C [pivaloyloxymethyl ester of the β-lactamase inhibitor penicillanic acid 1,1-dioxide] |  |  |  | Absorption from the gastro-intestinal tract (general statement) ([7]; oral, in words, no data shown): absorbed much more slowly; Solubility (general statement) [8]: sparingly soluble |
| CC(C)(C)C(=O)OCOC(=O)[C@@H]1N2C(=O)[C@@H](NC(=O)[C@H](N)c3ccccc3)[C@H]2SC1(C)C [pivampicillin] |  |  |  | Absorption from the gastro-intestinal tract (general statement) ([7]; oral, in words, no data shown): absorbed very rapidly |
| CC1(C)[C@H](C(=O)[O-])N2C(=O)C[C@H]2S1(=O)=O.[K+] [potassium penicillanate 1,1-dioxide] |  |  |  | Urinary excretion of penicillanic acid 1,1-dioxide [9]: 2.5 % of dose and 4.0 % of dose and 9.5 % of dose and 5.5 % of dose and 4.5 % of dose |
| CC1(C)[C@H](C(=O)O)N2C(=O)[C@@H](NC(=O)c3nc4ccccc4nc3C(=O)O)[C@H]2S1(=O)=O [quinacillin sulphone] | only weak antibacterial activity | powerful inhibitors | act synergistically |  |
